Assay results taken from patent US20020137929A1, “1 - (3-heterocyclylphenyl) isothiourea, -isourea, -guanidine and -amidine herbicidal agents” (Intellectual Property Department, BASF Aktiengesellschaft, priority 1998, published 2002).

What was measured:
AMBEL (Ragweed, Common) = test: Postemergence herbicidal evaluation; assay type: in vivo, Ambrosia artemisifolia
Procedure, shortened: (§1)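 Herbicidal effect was judged by eye on a 0–9 scale covering stand, vigor, deformity, size and chlorosis, compared with controls, four to five weeks after seedlings about two weeks old were sprayed (40 psi, ~0.0156–0.500 kg/ha).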

CASOB (Sicklepod) [1] = test: Postemergence herbicidal evaluation; assay type: in vivo, Cassia obtusifolia
Procedure, shortened: as §1

GALAP (Galium) = test: Postemergence herbicidal evaluation; assay type: in vivo, Galium aparine
Procedure, shortened: as §1

[2] = test system: IPOHE (Morningglory, Ivyleaf); test: Postemergence herbicidal evaluation; assay type: in vivo, Ipomoea hederacea
Procedure, shortened: as §1

ABUTH (Velvetleaf) = test: Preemergence herbicidal evaluation; assay type: in vivo, Abutilon theophrasti; settings: rated 4-5 weeks after treatment
Procedure, shortened: (§2)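 Greenhouse preemergence test: seed-soil mix sown on ~1 inch soil; aqueous acetone spray at equivalent of ~0.0156–0.500 kg/ha; greenhouse-held and watered; scored 0–9 visually at 4–5 weeks.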

CASOB (Sicklepod) [3] = test: Preemergence herbicidal evaluation; assay type: in vivo, Cassia obtusifolia; settings: rated 4-5 weeks after treatment
Procedure, shortened: as §2

[4] = test system: IPOHE (Morningglory, Ivyleaf); test: Preemergence herbicidal evaluation; assay type: in vivo, Ipomoea hederacea; settings: rated 4-5 weeks after treatment
Procedure, shortened: as §2

ECHCG (Barnyardgrass) = test: Preemergence herbicidal evaluation; assay type: in vivo, Echinochloa crus-galli; settings: rated 4-5 weeks after treatment
Procedure, shortened: as §2

[5] = test system: GLXMAW (Soybean, Williams); test: Preemergence herbicidal evaluation; assay type: in vivo, Glycine max, (L.) Merr. cv Williams; settings: rated 4-5 weeks after treatment
Procedure, shortened: as §2

[6] = test system: TRZAWR (Wheat, Winter, cv Riband); test: Preemergence herbicidal evaluation; assay type: in vivo, Triticum aestivum; settings: rated 4-5 weeks after treatment
Procedure, shortened: as §2

ZEAMX (Corn, Field) = test: Preemergence herbicidal evaluation; assay type: in vivo, Zea mays; settings: rated 4-5 weeks after treatment
Procedure, shortened: as §2

MOOVA (Monochoria) = test: Preemergence weed control under flooded paddy conditions; assay type: in vivo, Monochoria vaginalis; settings: rated 3-4 weeks after treatment
Procedure, shortened: (§3)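 Using flooded silt loam (water 1.5 to 3 cm deep), seeds sown in the top 0.5 cm were exposed preemergence to compound pipetted into the flood at about 0.0313 to 0.500 kg/ha. Effects were scored 0-9 by eye three to four weeks later.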

[7] = test system: SAGPY (Arrowhead (Pygmaea)); test: as above; assay type: in vivo, Sagittaria pygmaea; settings: rated 3-4 weeks after treatment
Procedure, shortened: as §3

CYPIR (Rice Flatsedge) = test: Postemergence weed control under flooded paddy conditions; assay type: in vivo, Cyperus iria; settings: postemergence weeds, 3-4 weeks after treatment
Procedure, shortened: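 Containers holding 3–5 cm weeds and rice at 1.5–2.5 leaves are flooded to 1.5–3 cm above soil. Compound in 50/50 v/v aqueous/acetone is then added directly to the water, about 0.0313–0.500 kg/ha. Plants are kept in the greenhouse and rated 0–9 visually at 3–4 weeks.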

CCOC(=O)COc1ccccc1CC1S/C(=N/c2cc(-n3c(=O)cc(C(F)(F)F)n(C)c3=O)c(F)cc2Cl)N(CC(=O)OCC)C1=O (stereo not shown) [Compound 42, 2-{{2-Chloro-5-[3,6-dihydro-3-methyl-2,6-dioxo-4-(trifluoromethyl)-1(2H)-pyrimidinyl]-4-fluoro-phenyl}imino}-5-(o-hydroxybenzyl)-4-oxo-3-thiazolidineacetic acid, ethyl ester, ester with ethyl glycolate]
Postemergence herbicidal rating AMBEL (AMBEL (Ragweed, Common); Rate 0.0158 kg/ha): 9.0 | Postemergence herbicidal rating AMBEL (AMBEL (Ragweed, Common); Rate 0.0315 kg/ha): 9.0 | Postemergence herbicidal rating AMBEL (AMBEL (Ragweed, Common); Rate 0.0630 kg/ha): 9.0 | Postemergence herbicidal rating CASOB (CASOB (Sicklepod) [1]; Rate 0.0158 kg/ha): 4.0 | Postemergence herbicidal rating CASOB (CASOB (Sicklepod) [1]; Rate 0.0315 kg/ha): 3.0 | Postemergence herbicidal rating CASOB (CASOB (Sicklepod) [1]; Rate 0.0630 kg/ha): 7.0 | Postemergence herbicidal rating GALAP (GALAP (Galium); Rate 0.0158 kg/ha): 1.0 | Postemergence herbicidal rating GALAP (GALAP (Galium); Rate 0.0315 kg/ha): 3.0 | Postemergence herbicidal rating GALAP (GALAP (Galium); Rate 0.0630 kg/ha): 3.0 | Postemergence herbicidal rating IPOHE ([2]; Rate 0.0158 kg/ha): 9.0 | Postemergence herbicidal rating IPOHE ([2]; Rate 0.0315 kg/ha): 9.0 | Postemergence herbicidal rating IPOHE ([2]; Rate 0.0630 kg/ha): 9.0 | Preemergence herbicidal rating ABUTH (ABUTH (Velvetleaf); rate 0.0313 kg/ha): 1.0 | Preemergence herbicidal rating ABUTH (ABUTH (Velvetleaf); rate 0.0625 kg/ha): 1.0 | Preemergence herbicidal rating ABUTH (ABUTH (Velvetleaf); rate 0.1250 kg/ha): 9.0 | Preemergence herbicidal rating ABUTH (ABUTH (Velvetleaf); rate 0.2500 kg/ha): 9.0 | Preemergence herbicidal rating CASOB (CASOB (Sicklepod) [3]; rate 0.0313 kg/ha): 0.0 | Preemergence herbicidal rating CASOB (CASOB (Sicklepod) [3]; rate 0.0625 kg/ha): 1.0 | Preemergence herbicidal rating CASOB (CASOB (Sicklepod) [3]; rate 0.1250 kg/ha): 0.0 | Preemergence herbicidal rating CASOB (CASOB (Sicklepod) [3]; rate 0.2500 kg/ha): 0.0 | Preemergence herbicidal rating IPOHE ([4]; rate 0.0313 kg/ha): 0.0 | Preemergence herbicidal rating IPOHE ([4]; rate 0.0625 kg/ha): 0.0 | Preemergence herbicidal rating IPOHE ([4]; rate 0.1250 kg/ha): 0.0 | Preemergence herbicidal rating IPOHE ([4]; rate 0.2500 kg/ha): 0.0 | Preemergence herbicidal rating ECHCG (ECHCG (Barnyardgrass); rate 0.0313 kg/ha): 0.0 | Preemergence herbicidal rating ECHCG (ECHCG (Barnyardgrass); rate 0.0625 kg/ha): 0.0 | Preemergence herbicidal rating ECHCG (ECHCG (Barnyardgrass); rate 0.1250 kg/ha): 0.0 | Preemergence herbicidal rating ECHCG (ECHCG (Barnyardgrass); rate 0.2500 kg/ha): 0.0 | Preemergence herbicidal rating GLXMAW ([5]; rate 0.0313 kg/ha): 0.0 | Preemergence herbicidal rating GLXMAW ([5]; rate 0.0625 kg/ha): 0.0 | Preemergence herbicidal rating GLXMAW ([5]; rate 0.1250 kg/ha): 1.0 | Preemergence herbicidal rating GLXMAW ([5]; rate 0.2500 kg/ha): 1.0 | Preemergence herbicidal rating TRZAWR ([6]; rate 0.0313 kg/ha): 0.0 | Preemergence herbicidal rating TRZAWR ([6]; rate 0.0625 kg/ha): 0.0 | Preemergence herbicidal rating TRZAWR ([6]; rate 0.1250 kg/ha): 0.0 | Preemergence herbicidal rating TRZAWR ([6]; rate 0.2500 kg/ha): 0.0 | Preemergence herbicidal rating ZEAMX (ZEAMX (Corn, Field); rate 0.0313 kg/ha): 0.0 | Preemergence herbicidal rating ZEAMX (ZEAMX (Corn, Field); rate 0.0625 kg/ha): 1.0 | Preemergence herbicidal rating ZEAMX (ZEAMX (Corn, Field); rate 0.1250 kg/ha): 0.0 | Preemergence herbicidal rating ZEAMX (ZEAMX (Corn, Field); rate 0.2500 kg/ha): 1.0 | Herbicidal rating MOOVA (MOOVA (Monochoria); 0.0313 kg/ha): 7.0 | Herbicidal rating MOOVA (MOOVA (Monochoria); 0.0625 kg/ha): 9.0 | Herbicidal rating MOOVA (MOOVA (Monochoria); 0.1250 kg/ha): 9.0 | Herbicidal rating MOOVA (MOOVA (Monochoria); 0.2500 kg/ha): 9.0 | Herbicidal rating SAGPY ([7]; 0.0313 kg/ha): 0.0 | Herbicidal rating SAGPY ([7]; 0.0625 kg/ha): 0.0 | Herbicidal rating SAGPY ([7]; 0.1250 kg/ha): 0.0 | Herbicidal rating SAGPY ([7]; 0.2500 kg/ha): 3.0 | Herbicidal rating CYPIR (CYPIR (Rice Flatsedge); rate 0.0313 kg/ha): 0.0 | Herbicidal rating CYPIR (CYPIR (Rice Flatsedge); rate 0.0625 kg/ha): 0.0 | Herbicidal rating CYPIR (CYPIR (Rice Flatsedge); rate 0.1250 kg/ha): 0.0 | Herbicidal rating CYPIR (CYPIR (Rice Flatsedge); rate 0.2500 kg/ha): 0.0
